Two substances from PMC8757871, “Bridging the Antimicrobial Activity of Two Lactoferricin Derivatives in E. coli and Lipid-Only Membranes” (Frontiers in Medical Technology, 2021) can be followed below.

One experiment has as its system E. coli K12 5K. It is filed as cell-based, Escherichia coli. The settings on record: MIC = IC99.9, 2 h incubation with AMP in PBS at 37°C, then growth in LB about 20 h. As to the method: Colonies of E. coli K12 5K (courtesy of Günther Koraimann, University of Graz) were grown in LB-agar plates at 37°C. Overnight cultures (ONCs) were prepared by inoculating a single colony in 3 ml LB-medium in sterile polypropylene conical tubes (15 ml), enabling bacterial growth under aerobic conditions for 12−16 h in a shaking incubator at 37°C. Main cultures were prepared by suspending an aliquot of the ONCs in 10 ml LB-medium in sterile polypropylene conical tubes (50 ml) and harvested in the middle of the exponential growth phase. Bacteria were then immediately washed twice and re-suspended in nutrient-free and isotonic phosphate-buffered saline (PBS) solution (phosphate buffer 20 mM, NaCl 130 mM) at pH 7.4. Bacterial concentration was measured via turbidity measurements. The optical density at λ = 600 nm (OD600) was acquired with the spectrophotometer Thermo Spectronic Genesys 20 (Thermo Fisher Scientific, Waltham, MA), where OD600 = 1 corresponds approximately to 8 ×10^8 CFU/ml (where CFU is colony forming units).
The antimicrobial activity of the AMPs on E. coli was tested using a modified susceptibility microdilution assay ([30]) in the bacterial concentration range of 5 × 10^5 to 10^9 CFU/ml. Bacterial suspensions were incubated at a given AMP concentration for 2 h at 37°C (control samples were incubated in buffer only). Then, cell growth was monitored upon addition of double concentrated LB-medium for about 20 h using a Bioscreen C MBR (Oy Growth Curves Ab, Helsinki, Finland).
This allowed us to quantify the number density of surviving bacteria from the onset of the exponential growth via the relation Δtexp = a + blog(ncell), where a and b were obtained from a calibration curve in absence of AMPs (Supplementary Figure 1B). Then, the inhibited bacterial fraction IF=1-ncell([P])/ncell0 was calculated for different values of peptide concentration, [P], and of bacterial number density of the control sample, ncell0 . Following the so-called “equi-activity” analysis ([27], [31]), we further interpolated IF using a Gompertz function, which enabled us to derive inhibitory peptide concentrations ICx, where x is the corresponding inhibited bacterial fraction (Supplementary Figure 1C). By convention, the standard MIC is defined at inhibition levels of 99.9%, i.e., IC99.9 ≡ MIC. Additional control experiments were performed in order to test whether DMSO and acetic acid, used in buffer solutions of both peptides (see above), affect bacterial growth. In particular, the microdilution assays were repeated with LF11-215 dissolved in pure PBS, yielding equivalently delayed onsets of bacterial growth.

A short description of experiment [1]: peptide partitioning from tryptophan fluorescence. It is filed as binding. The conditions noted are these: for K (mole fraction partitioning coefficient) / RB ([P]B/[L]) / [P]W (peptide concentration in the water phase): Trp emission band analysis, after 1 h incubation, HBS pH 7.4, 37°C. As to the method: All hydrated samples were equilibrated for 1 h at 40°C followed by 5 freeze-and-thaw cycles using liquid N2 and intermittent vortex-mixing. Large unilamellar vesicles (LUVs) were obtained by 31 extrusions with a handheld mini extruder (Avanti Polar Lipids, Alabaster, AL) using a 100 nm pore diameter polycarbonate filter. Vesicle size and polydispersity were determined via DLS using a Zetasizer NANO ZSP (Malvern Panalytical, Malvern, UK). ANTS/DPX-containing vesicles were separated from free ANTS/DPX by exclusion chromatography using a column filled with SephadexTM G-75 (Amersham Biosciences, Little Chalfont, UK) fine gel swollen in iso-osmotic HBS. Phospholipid concentrations for all samples were determined by phosphate analysis.
Fluorescence emission from Trp, present in both peptides, was measured with the Cary Eclipse Fluorescence Spectrophotometer, setting the excitation wavelength to λ= 280 nm, which corresponds to the maximum intensity of the Trp absorption/excitation band. Intensities of exciting and emitting light were adjusted by setting the slit widths of both incident and outgoing beam to 5 or 10 nm, depending on the emission intensity, in order to optimize the signal-to-noise ratio. Emission spectra were background-subtracted to remove contributions originating from the instrument's baseline and scattered light from vesicles. All samples were measured in HBS at 37°C using a quartz cuvette, with a magnetic stirrer to prevent sample sedimentation in the case of aggregation. LUVs ([L] = 100 μM) were mixed with peptides ([P] = 2 and 4 μM), recording fluorescence spectra at various post-mixing time intervals ranging from 0.5 to 60 min. Peptide solutions were measured at concentrations of 2, 3, and 4 μM in order to calibrate their intensity dependence in buffer.
The fluorescence emission band was fitted with the log-normal-like function ([32], [33]) where λmax and I0 are, respectively, wavelength and intensity of the emission peak; Γ is the full-width-at-half-maximum (FWHM) of the band; α is a skewness parameter (fixed at an optimum values 1.36 after testing); and y = α/(α^2 − 1). Spectra from mixtures of LUVs and peptides were analyzed with a linear combination of two independent bands I^W and I^B, referring to AMPs in bulk (W) and partitioned into the lipid bilayer (B). λ^W and Γ^W were fixed to the reference values obtained by analyzing spectra from pure AMPs. Instead, I0W , I0B , λ^B, and Γ^B were adjustable parameters. The so obtained set of I0W values was converted to the concentration of dissociated peptides [P]W and further analyzed for peptide partitioning as detailed in section 2.3.1.
Following a previously reported thermodynamic formalism for the partitioning of peptides into lipid bilayers ([37]), based on the free energy of transfer of molecules from water into octanol ([38]), we define the mole fraction partitioning coefficient, K, as […]
(3) K=[P]B/([P]B+[L])/[P]W/([P]W+[W])≃[P]B[W]/[P]W[L], where [P]B is the molar concentration of peptides partitioned into the lipid phase; [P]W is the peptide concentration in the water phase; and [L] and [W] are, respectively, the molar concentrations of lipids and bulk water (55.5 M at 25°C and 55.3 M at 37°C). The approximation for K (Equation 3) is obtained applying [W] ≫ [PW] and [L] ≫ [PB] (similarly, the concentration of ions in water, i.e., buffer solutions, is negligible compared to [W]). By definition, the total concentration of peptides is [P] = [P]W + [P]B, thus leading to […]
(4) [P]=RB[W]/K︸[P]W+RB[L]︸[P]B=RB([W]/K+[L]),

Setting [2] is: POPE/POPG LUVs [L] = 100 μM, [P] = 2 μM.
Where [3] appears, read: POPE/POPG LUVs [L] = 100 μM, [P] = 4 μM.
The mark [4] stands for this setting: POPE/POPG/TOCL LUVs [L] = 100 μM, [P] = 2 μM.
Where [5] appears, read: POPE/POPG/TOCL LUVs [L] = 100 μM, [P] = 4 μM.
Setting [6] is: POPG LUVs [L] = 100 μM, [P] = 2 μM.
Where [7] appears, read: POPG LUVs [L] = 100 μM, [P] = 4 μM.

As a reminder, the MIC is the least concentration at which growth counts as inhibited. Low values mean a more susceptible organism, high ones a less susceptible organism.

Like-named read-outs stand apart in the source and are kept apart here.

For the substance “H-PFFWRIRIRR-NH2 [LF11-324, H-PFFWRIRIRR-NH2]”, the MIC came to 11.1 ± 0.6 µM in the experiment on E. coli K12 5K (ncell = 10^6 CFU/ml) and 57 ± 2 µM in the experiment with E. coli K12 5K (ncell = 10^9 CFU/ml). Also, the “K (mole fraction partitioning coefficient)” value is recorded as 67 ± 4 ×10^4 in experiment [1] (setting [2]); 47 ± 3 ×10^4 in experiment [1] (setting [3]); 63 ± 4 ×10^4 in experiment [1] (setting [4]); 111 ± 5 ×10^4 in experiment [1] (setting [5]); 61 ± 4 ×10^4 in experiment [1] (setting [6]); 20 ± 20 ×10^4 in experiment [1] (setting [7]). Besides, the “RB ([P]B/[L])” value in experiment [1] (setting [2]) is listed as 11.0 ± 0.3 ×10^−3; in experiment [1] (setting [3]) it was 18.4 ± 0.6 ×10^−3; in experiment [1] (setting [4]), 10.6 ± 0.3 ×10^−3; in experiment [1] (setting [5]), 26.7 ± 0.4 ×10^−3; in experiment [1] (setting [6]), 10.5 ± 0.3 ×10^−3; in experiment [1] (setting [7]), 10.7 ± 0.9 ×10^−3. The “[P]W (peptide concentration in the water phase)” value in experiment [1] (setting [2]) came to 0.90 ± 0.02 µM; in experiment [1] (setting [3]), 2.16 ± 0.06 µM; in experiment [1] (setting [4]), 0.95 ± 0.03 µM; in experiment [1] (setting [5]), 1.33 ± 0.04 µM; in experiment [1] (setting [6]) it was 0.95 ± 0.03 µM; in experiment [1] (setting [7]), 2.93 ± 0.09 µM.

With “H-FWRIRIRR-NH2 [LF11-215, H-FWRIRIRR-NH2]”, the minimum inhibitory concentration (MIC) with E. coli K12 5K (ncell = 10^6 CFU/ml) is 13.7 ± 0.4 µM; with E. coli K12 5K (ncell = 10^9 CFU/ml), 158 ± 2 µM. Moreover, the “membrane partitioning, times higher than for LF11-324” value in experiment [1] (POPE/POPG/TOCL lipid mixtures) was ~ 1.3 times. Moreover, the “K (mole fraction partitioning coefficient)” value is 70 ± 4 ×10^4 in experiment [1] (setting [2]); 43 ± 3 ×10^4 in experiment [1] (setting [3]); 82 ± 4 ×10^4 in experiment [1] (setting [4]); 139 ± 6 ×10^4 in experiment [1] (setting [5]); 161 ± 6 ×10^4 in experiment [1] (setting [6]); 217 ± 8 ×10^4 in experiment [1] (setting [7]). Also, the “RB ([P]B/[L])” value in experiment [1] (setting [2]) is on record as 11.2 ± 0.3 ×10^−3; in experiment [1] (setting [3]) it was 17.5 ± 0.7 ×10^−3; in experiment [1] (setting [4]) it was 11.9 ± 0.2 ×10^−3; in experiment [1] (setting [5]) it was 28.6 ± 0.3 ×10^−3; in experiment [1] (setting [6]), 14.9 ± 0.3 ×10^−3; in experiment [1] (setting [7]) it was 31.9 ± 0.4 ×10^−3. In addition, the “[P]W (peptide concentration in the water phase)” value in experiment [1] (setting [2]) worked out at 0.88 ± 0.03 µM; in experiment [1] (setting [3]), 2.25 ± 0.07 µM; in experiment [1] (setting [4]), 0.81 ± 0.02 µM; in experiment [1] (setting [5]) it was 1.14 ± 0.03 µM; in experiment [1] (setting [6]), 0.513 ± 0.015 µM; in experiment [1] (setting [7]) it was 0.81 ± 0.04 µM.
